The text below walks through data of publication PMC5520047, “Prioritizing multiple therapeutic targets in parallel using automated DNA-encoded library screening” (Nature Communications, 2017).

Bounds are passed on as bounds.

Assay [1] has as its system E. coli TOP10 ∆TolC, pHN678’ and pHN678’-LolA antisense. Put plainly: MoA study: MIC in lolA antisense expressor. As to conditions: for MIC: Escherichia coli. It is filed as cell-based, Escherichia coli.
The test system of assay [2] is A. baumannii BM4652 efflux mutant, pRK415 and pRK415-UppS. The assay can be described thus: microbe, parasite or virus in culture. Format: cell-based, Acinetobacter baumannii. Particulars: 30 μg/ml polymyxin B nonapeptide; for MIC: Acinetobacter baumannii; for Fold MIC increase: pRK415-UppS overexpressing strain relative to parent strain.
Assay [3] has as its system A. baumannii BM4652 strains. Put plainly: Potentiation of teicoplanin MIC by LpxA compound 4. Format: cell-based, Acinetobacter baumannii.
Where [4] appears, read: E. coli TOP10 ∆TolC + pHN678’-LolA antisense.
[5] abbreviates: A. baumannii BM4652 efflux mutant + pRK415-UppS.
[6] abbreviates: A. baumannii BM4652 efflux mutant + pRK415.
[7] abbreviates: A. baumannii BM4652 efflux mutant, N/A (no plasmid).

As to `CC[C@H]1OC(=O)[C@H](C)[C@@H](O[C@H]2C[C@@](C)(OC)[C@@H](O)[C@H](C)O2)[C@H](C)[C@@H](O[C@@H]2O[C@H](C)C[C@H](N(C)C)[C@H]2O)[C@](C)(O)C[C@@H](C)CN(C)[C@H](C)[C@@H](O)[C@]1(C)O` [Azithromycin], the MIC in assay [1] (E. coli TOP10 ∆TolC + pHN678’) is 0.0156 µg/mL; in assay [1] (setting [4]), 0.0039 µg/mL; in assay [2] (setting [5]), 0.031 µg/mL; in assay [2] (setting [6]), 0.031 µg/mL; in assay [2] (setting [7]) it was 0.031 µg/mL. Also, the “Fold MIC decrease” value in assay [1] (lolA antisense plasmid compared to vector alone) was found to be 4 fold. In addition, the results for the “Fold MIC increase” value in assay [2] and in assay [2] (listed as azithromycin) were 1 fold and “unchanged”, respectively.

Take `CC(C)(O/N=C(\C(=O)N[C@@H]1C(=O)N2C(C(=O)[O-])=C(C[n+]3ccccc3)CS[C@H]12)c1csc(N)n1)C(=O)O` [Ceftazidime]: the MIC in assay [2] (setting [5]), in assay [2] (setting [6]) and in assay [2] (setting [7]) was 0.5 µg/mL each time. For the same compound, the “Fold MIC increase” value is recorded as 1 fold in assay [2] and “unchanged” in assay [2] (listed as ceftazidime).

In the case of `O=C(O)c1cn(C2CC2)c2cc(N3CCNCC3)c(F)cc2c1=O` [Ciprofloxacin], the MIC in assay [1] (E. coli TOP10 ∆TolC + pHN678’) and in assay [1] (setting [4]) was 0.0078 µg/mL throughout.

On to `C[C@@H](O)[C@H]1C(=O)N2C(C(=O)O)=C(SCCN=CN)C[C@H]12` [Imipenem], for which the MIC in assay [1] (E. coli TOP10 ∆TolC + pHN678’) and in assay [1] (setting [4]) was 1 µg/mL in each case.

In the case of teicoplanin, the MIC of teicoplanin in assay [3] (A. baumannii BM4652/pRK415-LpxA, compound 4 at 0 µg/ml) is > 64 µg/mL; in assay [3] (A. baumannii BM4652/pRK415-LpxA, compound 4 at 4 µg/ml), > 64 µg/mL; in assay [3] (A. baumannii BM4652/pRK415-LpxA, compound 4 at 8 µg/ml) it was > 64 µg/mL; in assay [3] (A. baumannii BM4652/pRK415-LpxA, compound 4 at 16 µg/ml), > 64 µg/mL; in assay [3] (A. baumannii BM4652/pRK415-LpxA, compound 4 at 32 µg/ml), > 64 µg/mL; in assay [3] (A. baumannii BM4652/pRK415-LpxA, compound 4 at 64 µg/ml) it was > 64 µg/mL. In addition, the MIC of teicoplanin is > 64 µg/mL in assay [3] (A. baumannii BM4652/pRK415-LpxA, compound 4 at 128 µg/ml); > 64 µg/mL in assay [3] (A. baumannii BM4652/pRK415, compound 4 at 0 µg/ml); > 64 µg/mL in assay [3] (A. baumannii BM4652/pRK415, compound 4 at 4 µg/ml); > 64 µg/mL in assay [3] (A. baumannii BM4652/pRK415, compound 4 at 8 µg/ml); > 64 µg/mL in assay [3] (A. baumannii BM4652/pRK415, compound 4 at 16 µg/ml); 0.5 µg/mL in assay [3] (A. baumannii BM4652/pRK415, compound 4 at 32 µg/ml). Also, the MIC of teicoplanin in assay [3] (A. baumannii BM4652/pRK415, compound 4 at 64 µg/ml) is 0.5 µg/mL; in assay [3] (A. baumannii BM4652/pRK415, compound 4 at 128 µg/ml), 0.5 µg/mL; in assay [3] (A. baumannii BM4652, compound 4 at 0 µg/ml), > 64 µg/mL; in assay [3] (A. baumannii BM4652, compound 4 at 4 µg/ml) it was > 64 µg/mL; in assay [3] (A. baumannii BM4652, compound 4 at 8 µg/ml), > 64 µg/mL; in assay [3] (A. baumannii BM4652, compound 4 at 16 µg/ml) it was 16 µg/mL. Also, the MIC of teicoplanin in assay [3] (A. baumannii BM4652, compound 4 at 32 µg/ml) stood at 0.5 µg/mL; in assay [3] (A. baumannii BM4652, compound 4 at 64 µg/ml) it was 0.5 µg/mL; in assay [3] (A. baumannii BM4652, compound 4 at 128 µg/ml) it was 0.5 µg/mL.
